Where two headings read alike, the source gives them in different places.
Columns and labels:
[1] = system: CCD1079SK (fibroblast, noncancerous but proliferating); assay: CIMA assay, cell viability, CCD1079SK; conditions: CCD
[2] = CIMA assay, cell viability, CCD1079SK; conditions: human, Average cell viability, CCD
[3] = system: U373 (glioblastoma-astrocytoma); assay: CIMA assay, cell viability, U373; conditions: for Fold change in viability AVG: U373
[4] = system: SKOV3 (ovarian adenocarcinoma); assay: CIMA assay, cell viability, SKOV3; conditions: for Fold change in viability AVG: SKOV
MDA-MB [5] = conditions: MDA-MB
MDA-MB [6] = assay: cells; conditions: Homo sapiens, read-out: Average cell viability, MDA-MB
PC3 = assay: CIMA assay, cell viability, PC3; conditions: for Fold change in viability AVG: PC3
A549 (lung carcinoma) = assay: CIMA assay (colorimetric indicator of metabolic activity), cell viability, A549; conditions: for Fold change in viability AVG: A549
[7] = system: THP-1 (acute monocytic leukemia); assay: CIMA assay, cell viability, THP-1; conditions: for Fold change in viability AVG: THP-1
Description: Stock solutions of the extracts were prepared in dimethylsulfoxide (DMSO) at 10 mg/mL and stored in 200 μl aliquots at −20° C. until analysis. This preparation ensured that the DMSO delivered to cells in culture never exceeded 1%.
Prepared extracts were assessed following chronic exposure conditions in which cells were seeded at 2×10^3 cells/well (96 well-plate) and incubated with test compounds for 72 h. Each compound was evaluated over a range of concentrations (0, 10, 25, 50 or 100 μg/ml). Cell proliferation was initially assessed using a standard colorimetric indicator of metabolic activity (CIMA) assay. In this assay, tetrazole reduction was evaluated as a measure of metabolic function that evaluates mitochondrial activity to determine the extent of cell proliferation within a culture. This assay is based on the reduction of yellow tetrazolium salt to purple formazan by mitochondrial reductases enzyme in viable cells, resulting in a color changed that confers a change in absorbance.

SMILES: CC/C=C\C/C=C\C/C=C\C/C=C\C/C=C\CCCC(=O)OCC(COC1OC(CO)C(O)C(O)C1O)OC(=O)CCC/C=C\C/C=C\C/C=C\C/C=C\C/C=C\CC (stereo not shown) [Compound 7, MGDG C20:5/C20:5]
- Fold change in viability AVG ([1]; 1 ug/mL): 1.13
- Fold change in viability AVG ([1]; 10 ug/mL): 1.06
- Fold change in viability AVG ([1]; 50 ug/mL): 0.25
- Fold change in viability AVG ([1]; 100 ug/mL): 0.19
- viability at 72 h, 1 ug/mL ([2]; CCD1079SK fibroblast cells (noncancerous, proliferating), 1 ug/mL): 103%
- viability at 72 h, 10 ug/mL ([2]; CCD1079SK fibroblasts (noncancerous, proliferating), 10 ug/mL): 97%
- viability at 72 h, 50 ug/mL ([2]; CCD1079SK fibroblasts (noncancerous, proliferating), 50 ug/mL): 23%
- viability at 72 h, 100 ug/mL ([2]; CCD1079SK fibroblasts (noncancerous, proliferating), 100 ug/mL): 17%
- viability at 1 µg/mL ([3]; Homo sapiens, U373 MG, read-out: Average cell viability, U373, 1 ug/mL): 120%
- viability at 10 µg/mL ([3]; Homo sapiens, U373 MG, read-out: Average cell viability, U373, 10 ug/mL): 108%
- viability at 50 µg/mL ([3]; Homo sapiens, U373 MG, read-out: Average cell viability, U373, 50 ug/mL): 6%
- viability at 100 µg/mL ([3]; Homo sapiens, U373 MG, read-out: Average cell viability, U373, 100 ug/mL): 5%
- U373 AVG ([3]; U373, sample at 1 ug/mL): 1.22
- U373 AVG ([3]; U373, sample at 10 ug/mL): 1.10
- U373 AVG ([3]; U373, sample at 50 ug/mL): 0.06
- U373 AVG ([3]; U373, sample at 100 ug/mL): 0.05
- Fold change in viability AVG ([3]; 1 ug/mL): 1.22
- Fold change in viability AVG ([3]; 10 ug/mL): 1.10
- Fold change in viability AVG ([3]; 50 ug/mL): 0.06
- Fold change in viability AVG ([3]; 100 ug/mL): 0.05
- viability at 1 µg/mL ([4]; Homo sapiens, SK-OV-3, read-out: Average cell viability, SKOV, 1 ug/mL): 126%
- viability at 10 µg/mL ([4]; Homo sapiens, SK-OV-3, read-out: Average cell viability, SKOV, 10 ug/mL): 113%
- viability at 50 µg/mL ([4]; Homo sapiens, SK-OV-3, read-out: Average cell viability, SKOV, 50 ug/mL): 95%
- viability at 100 µg/mL ([4]; Homo sapiens, SK-OV-3, read-out: Average cell viability, SKOV, 100 ug/mL): 46%
- Fold change in viability AVG ([4]; 1 ug/mL): 1.36
- Fold change in viability AVG ([4]; 10 ug/mL): 1.21
- Fold change in viability AVG ([4]; 50 ug/mL): 1.02
- Fold change in viability AVG ([4]; 100 ug/mL): 0.49
- MDA-MB AVG (MDA-MB [5]; sample at 1 ug/mL): 1.16
- MDA-MB AVG (MDA-MB [5]; sample at 10 ug/mL): 1.13
- MDA-MB AVG (MDA-MB [5]; sample at 50 ug/mL): 0.30
- MDA-MB AVG (MDA-MB [5]; sample at 100 ug/mL): 0.27
- Fold change in viability AVG (MDA-MB [5]; 1 ug/mL): 1.16
- Fold change in viability AVG (MDA-MB [5]; 10 ug/mL): 1.13
- Fold change in viability AVG (MDA-MB [5]; 50 ug/mL): 0.30
- Fold change in viability AVG (MDA-MB [5]; 100 ug/mL): 0.27
- viability at 1 µg/mL (MDA-MB [6]; 1 ug/mL): 106%
- viability at 10 µg/mL (MDA-MB [6]; 10 ug/mL): 104%
- viability at 50 µg/mL (MDA-MB [6]; 50 ug/mL): 27%
- viability at 100 µg/mL (MDA-MB [6]; 100 ug/mL): 24%
- viability at 1 µg/mL (PC3; Homo sapiens, PC-3, read-out: Average cell viability, PC3, 1 ug/mL): 107%
- viability at 10 µg/mL (PC3; Homo sapiens, PC-3, read-out: Average cell viability, PC3, 10 ug/mL): 103%
- viability at 50 µg/mL (PC3; Homo sapiens, PC-3, read-out: Average cell viability, PC3, 50 ug/mL): 14%
- viability at 100 µg/mL (PC3; Homo sapiens, PC-3, read-out: Average cell viability, PC3, 100 ug/mL): 12%
- PC3 AVG (PC3; PC3, sample at 1 ug/mL): 1.11
- PC3 AVG (PC3; PC3, sample at 10 ug/mL): 1.07
- PC3 AVG (PC3; PC3, sample at 50 ug/mL): 0.14
- PC3 AVG (PC3; PC3, sample at 100 ug/mL): 0.13
- Fold change in viability AVG (PC3; 1 ug/mL): 1.11
- Fold change in viability AVG (PC3; 10 ug/mL): 1.07
- Fold change in viability AVG (PC3; 50 ug/mL): 0.14
- Fold change in viability AVG (PC3; 100 ug/mL): 0.13
- A549 AVG (A549 (lung carcinoma); A549, sample at 1 ug/mL): 0.72
- A549 AVG (A549 (lung carcinoma); A549, sample at 10 ug/mL): 0.65
- A549 AVG (A549 (lung carcinoma); A549, sample at 50 ug/mL): 0.64
- A549 AVG (A549 (lung carcinoma); A549, sample at 100 ug/mL): 0.40
- Fold change in viability AVG (A549 (lung carcinoma); 1 ug/mL): 0.72
- Fold change in viability AVG (A549 (lung carcinoma); 10 ug/mL): 0.65
- Fold change in viability AVG (A549 (lung carcinoma); 50 ug/mL): 0.64
- Fold change in viability AVG (A549 (lung carcinoma); 100 ug/mL): 0.40
- viability at 1 µg/mL (A549 (lung carcinoma); Homo sapiens, A549, read-out: Average cell viability, A549, 1 ug/mL): 61%
- viability at 10 µg/mL (A549 (lung carcinoma); Homo sapiens, A549, read-out: Average cell viability, A549, 10 ug/mL): 56%
- viability at 50 µg/mL (A549 (lung carcinoma); Homo sapiens, A549, read-out: Average cell viability, A549, 50 ug/mL): 55%
- viability at 100 µg/mL (A549 (lung carcinoma); Homo sapiens, A549, read-out: Average cell viability, A549, 100 ug/mL): 34%
- viability at 1 µg/mL ([7]; Homo sapiens, THP-1, read-out: Average cell viability, THP-1, 1 ug/mL): 108%
- viability at 10 µg/mL ([7]; Homo sapiens, THP-1, read-out: Average cell viability, THP-1, 10 ug/mL): 102%
- viability at 50 µg/mL ([7]; Homo sapiens, THP-1, read-out: Average cell viability, THP-1, 50 ug/mL): 52%
- viability at 100 µg/mL ([7]; Homo sapiens, THP-1, read-out: Average cell viability, THP-1, 100 ug/mL): 50%
- THP-1 AVG ([7]; THP-1, sample at 1 ug/mL): 1.17
- THP-1 AVG ([7]; THP-1, sample at 10 ug/mL): 1.16
- THP-1 AVG ([7]; THP-1, sample at 50 ug/mL): 0.59
- THP-1 AVG ([7]; THP-1, sample at 100 ug/mL): 0.57
- Fold change in viability AVG ([7]; 1 ug/mL): 1.17
- Fold change in viability AVG ([7]; 10 ug/mL): 1.16
- Fold change in viability AVG ([7]; 50 ug/mL): 0.59
- Fold change in viability AVG ([7]; 100 ug/mL): 0.57
